This note sets out measurements from article PMC8581430, “Peptide ligands targeting FGF receptors promote recovery from dorsal root crush injury via AKT/mTOR signaling” (Theranostics, 2021).

The structures appear in SMILES notation.

The test system of experiment [1] is FGFR (phosphorylated) in DRG explants. Kind of experiment: Western blot of phosphorylated FGFR in ex vivo DRG explants. The experiment is classed as cell-based, Sprague-Dawley rat. The settings on record: CH02 20 μM + BGJ398 2 μM, 4 h, n = 3. The protocol: Figure 5 Role of FGFR signaling in response to the CH02 peptide on promoting nerve regeneration. (A) Western blot analysis of phosphorylated FGFR expression in C5-T1 DRGs subjected to dorsal root crush injury, followed by CH02 treatment (20 μM). DRGs were collected after 3 days. Glyceraldehyde-3-phosphate dehydrogenase (GAPDH) antibodies were used as the loading control. (B) Western blot analysis of phosphorylated FGFR expression in ex vivo cultured DRG explants of adult Sprague-Dawley rats in response to CH02 treatment at different induction times. […] (D-F) Quantification of p-FGFR expression levels in panels A, B, and C. n = 3 independent experiments. Relative protein expression levels were quantified after normalization to FGFR2 or FGFR1. […] (H) Quantification of axon growth in DRG explants (G) using Neurite-J software (n = 5 for each condition; *control vs. CH02; #control vs. BGJ398; **p < 0.01, ***p < 0.001, ****p < 0.0001, #p < 0.05, ##p < 0.01 by two-way ANOVA with Dunnett's test; mean ± SEM). […] Images of random neurons were acquired by fluorescence microscopy. […] (J) Quantification of the longest axon length of each neuron randomly selected from (I) using Image-Pro Plus 6.0 software (n = 100 for each condition; *p < 0.05, **p < 0.01, ****p < 0.0001 by one-way ANOVA with Dunnett's; ns, not significant; mean ± SD). […]
In general terms: In western blotting, separated proteins are transferred to a membrane and probed.

The subject of experiment [2] is mTOR (phosphorylated) in DRG explants. Kind of experiment: Western blot of phosphorylated mTOR in DRG explants. The experiment is classed as cell-based, rat. Conditions: CH02 20 μM + inhibitor 2 μM, 4 h, n = 3. The protocol:
Figure 7 CH02-stimulated activation of AKT/mTOR signaling is required for growth potential augmentation of axons. (A) Immunoblot analysis showing phosphorylated mTOR expression in C5-T1 DRGs subjected to dorsal root injury followed by CH02 treatment (20 μM). DRG samples were collected 3 days post-treatment. (B) Quantification of p-mTOR expression levels in A. n = 3 independent experiments. Relative protein expression levels were quantified after normalization to mTOR. Values are means ± SEM. (C) Immunoblot showing phosphorylated mTOR expression in DRG explants pretreated with DMSO (control), CH02 (20 μM), CH02+AKTi (2 μM) or CH02+ U0126 (2 μM) for 4 h. (D) Quantification of the p-mTOR expression from C. n = 3 independent experiments. Relative protein expression levels were quantified after normalization to mTOR. […] The axon is shown in fluorescence (β3-tubulin) images. […] (F) Quantification of the longest axon length of each neuron from (E) (n = 62 for each condition; *Control vs. CH02, CH02+Torin1, Torin1; # CH02 vs. CH02+Torin1; **p < 0.01, ****p < 0.0001, #p < 0.05 by one-way ANOVA with Dunnett's test; ns, not significant; mean ± SD). […] (H) Quantification of axon growth in DRG explants from (G) using Neurite-J software (n = 4 for each condition; *control vs. CH02, CH02+Torin1, Torin1; *p < 0.05, **p < 0.01, ***p < 0.001, ****p < 0.0001 by two-way ANOVA with Dunnett's test; mean ± SEM). […]

`CCN1CCN(c2ccc(Nc3cc(N(C)C(=O)Nc4c(Cl)c(OC)cc(OC)c4Cl)ncn3)cc2)CC1` [BGJ398]: the “effect of inhibitor on CH02-upregulated phosphorylated FGFR” value in experiment [1] is listed as “counteracted CH02 effects on upregulated phosphorylated FGFR levels”.
Turning to `N#CC(=C(/N)Sc1ccccc1N)/C(C#N)=C(/N)Sc1ccccc1N` [U0126], the “effect of inhibitor on CH02-induced phosphorylated mTOR” value in experiment [2] is recorded as “had little effect”.
